pIC50: −log10 of the molar value.
Target: human NaV subtype, like NaV 1.7 (Homo sapiens, UniProt Q15858)
Assay: E-VIPR optical membrane potential assay with electrical stimulation
Assay type: cell-based
Conditions: active against one or more sodium channels; assay and NaV subtype not specified for Table 3; read-out: IC50 Binned Activity Data
From the text: Assays for Detecting and Measuring NaV Inhibition Properties of Compound E-VIPR Optical Membrane Potential Assay Method with Electrical Stimulation
Sodium channels are voltage-dependent proteins that can be activated by inducing membrane voltage changes by applying electric fields. The electrical stimulation instrument and methods of use are described in Ion Channel Assay Methods PCT/US01/21652, herein incorporated by reference and are referred to as E-VIPR. The instrument comprises a microtiter plate handler, an optical system for exciting the coumarin dye while simultaneously recording the coumarin and oxonol emissions, a waveform generator, a current- or voltage-controlled amplifier, and a device for inserting electrodes in well. Under integrated computer control, this instrument passes user-programmed electrical stimulus protocols to cells within the wells of the microtiter plate.
24 hours before the assay on E-VIPR, HEK cells expressing human NaV subtype, like NaV 1.7, are seeded in 384-well poly-lysine coated plates at 15,000-20,000 cells per well. Other subtypes are performed in an analogous mode in a cell line expressing the NaV of interest. HEK cells are grown in media (exact composition is specific to each cell type and NaV subtype) supplemented with 10% FBS (Fetal Bovine Serum, qualified; GibcoBRL #16140-071) and 1% Pen-Strep (Penicillin-Streptomycin; GibcoBRL #15140-122). Cells are grown in vented cap flasks, in 90% humidity and 10% CO2, to 100% confluence. They are usually split by trypsinization 1:10 or 1:20, depending on scheduling needs, and grown for 2-3 days before the next split.
100 mg/mL Pluronic F-127 (Sigma #P2443), in dry DMSO
Compound Plates: 384-well round bottom plate, e.g. Corning 384-well Polypropylene Round Bottom #3656
Cell Plates: 384-well tissue culture treated plate, e.g. Greiner #781091-1B
Bath1 buffer. Glucose 10 mM (1.8 g/L), Magnesium Chloride (Anhydrous), 1 mM (0.095 g/L), Calcium Chloride, 2 mM (0.222 g/L), HEPES 10 mM (2.38 g/L), Potassium Chloride, 4.5 mM (0.335 g/L), Sodium Chloride 160 mM (9.35 g/L).
Hexyl Dye Solution: Bath1 Buffer+0.5% β-cyclodextrin (make this prior to use, Sigma #C4767), 8 μM CC2-DMPE+2.5 μM DiSBAC6(3). To make the solution Add volume of 10% Pluronic F127 stock equal to volumes of CC2-DMPE+DiSBAC6(3). The order of preparation is first mix Pluronic and CC2-DMPE, then add DiSBAC6(3) while vortexing, then add Bath1+β-Cyclodextrin.
1) Pre-spot compounds (in neat DMSO) into compound plates. Vehicle control (neat DMSO), the positive control (20 mM DMSO stock tetracaine, 125 μM final in assay) and test compounds are added to each well at 160× desired final concentration in neat DMSO. Final compound plate volume will be 80 μL (80-fold intermediate dilution from 1 μL DMSO spot; 160-fold final dilution after transfer to cell plate). Final DMSO concentration for all wells in assay is 0.625%.
2) Prepare Hexyl Dye Solution.
3) Prepare cell plates. On the day of the assay, medium is aspirated and cells are washed three times with 100 μL of Bath1 Solution, maintaining 25 μL residual volume in each well.
4) Dispense 25 μL per well of Hexyl Dye Solution into cell plates. Incubate for 20-35 minutes at room temp or ambient conditions.
5) Dispense 80 μL per well of Bath1 into compound plates. Acid Yellow-17 (1 mM) is added and Potassium Chloride can be altered from 4.5 to 20 mM depending on the NaV subtype and assay sensitivity.
6) Wash cell plates three times with 100 μL per well of Bath1, leaving 25 μL of residual volume. Then transfer 25 uL per well from Compound Plates to Cell Plates. Incubate for 20-35 minutes at room temp/ambient condition
7) Read Plate on E-VIPR. Use the current-controlled amplifier to deliver stimulation wave pulses for typically 9 seconds and a scan rate of 400 Hz. A pre-stimulus recording is performed for 0.5 seconds to obtain the un-stimulated intensities baseline. […]

Sequence of human NaV subtype, like NaV 1.7 (Q15858 whole entry): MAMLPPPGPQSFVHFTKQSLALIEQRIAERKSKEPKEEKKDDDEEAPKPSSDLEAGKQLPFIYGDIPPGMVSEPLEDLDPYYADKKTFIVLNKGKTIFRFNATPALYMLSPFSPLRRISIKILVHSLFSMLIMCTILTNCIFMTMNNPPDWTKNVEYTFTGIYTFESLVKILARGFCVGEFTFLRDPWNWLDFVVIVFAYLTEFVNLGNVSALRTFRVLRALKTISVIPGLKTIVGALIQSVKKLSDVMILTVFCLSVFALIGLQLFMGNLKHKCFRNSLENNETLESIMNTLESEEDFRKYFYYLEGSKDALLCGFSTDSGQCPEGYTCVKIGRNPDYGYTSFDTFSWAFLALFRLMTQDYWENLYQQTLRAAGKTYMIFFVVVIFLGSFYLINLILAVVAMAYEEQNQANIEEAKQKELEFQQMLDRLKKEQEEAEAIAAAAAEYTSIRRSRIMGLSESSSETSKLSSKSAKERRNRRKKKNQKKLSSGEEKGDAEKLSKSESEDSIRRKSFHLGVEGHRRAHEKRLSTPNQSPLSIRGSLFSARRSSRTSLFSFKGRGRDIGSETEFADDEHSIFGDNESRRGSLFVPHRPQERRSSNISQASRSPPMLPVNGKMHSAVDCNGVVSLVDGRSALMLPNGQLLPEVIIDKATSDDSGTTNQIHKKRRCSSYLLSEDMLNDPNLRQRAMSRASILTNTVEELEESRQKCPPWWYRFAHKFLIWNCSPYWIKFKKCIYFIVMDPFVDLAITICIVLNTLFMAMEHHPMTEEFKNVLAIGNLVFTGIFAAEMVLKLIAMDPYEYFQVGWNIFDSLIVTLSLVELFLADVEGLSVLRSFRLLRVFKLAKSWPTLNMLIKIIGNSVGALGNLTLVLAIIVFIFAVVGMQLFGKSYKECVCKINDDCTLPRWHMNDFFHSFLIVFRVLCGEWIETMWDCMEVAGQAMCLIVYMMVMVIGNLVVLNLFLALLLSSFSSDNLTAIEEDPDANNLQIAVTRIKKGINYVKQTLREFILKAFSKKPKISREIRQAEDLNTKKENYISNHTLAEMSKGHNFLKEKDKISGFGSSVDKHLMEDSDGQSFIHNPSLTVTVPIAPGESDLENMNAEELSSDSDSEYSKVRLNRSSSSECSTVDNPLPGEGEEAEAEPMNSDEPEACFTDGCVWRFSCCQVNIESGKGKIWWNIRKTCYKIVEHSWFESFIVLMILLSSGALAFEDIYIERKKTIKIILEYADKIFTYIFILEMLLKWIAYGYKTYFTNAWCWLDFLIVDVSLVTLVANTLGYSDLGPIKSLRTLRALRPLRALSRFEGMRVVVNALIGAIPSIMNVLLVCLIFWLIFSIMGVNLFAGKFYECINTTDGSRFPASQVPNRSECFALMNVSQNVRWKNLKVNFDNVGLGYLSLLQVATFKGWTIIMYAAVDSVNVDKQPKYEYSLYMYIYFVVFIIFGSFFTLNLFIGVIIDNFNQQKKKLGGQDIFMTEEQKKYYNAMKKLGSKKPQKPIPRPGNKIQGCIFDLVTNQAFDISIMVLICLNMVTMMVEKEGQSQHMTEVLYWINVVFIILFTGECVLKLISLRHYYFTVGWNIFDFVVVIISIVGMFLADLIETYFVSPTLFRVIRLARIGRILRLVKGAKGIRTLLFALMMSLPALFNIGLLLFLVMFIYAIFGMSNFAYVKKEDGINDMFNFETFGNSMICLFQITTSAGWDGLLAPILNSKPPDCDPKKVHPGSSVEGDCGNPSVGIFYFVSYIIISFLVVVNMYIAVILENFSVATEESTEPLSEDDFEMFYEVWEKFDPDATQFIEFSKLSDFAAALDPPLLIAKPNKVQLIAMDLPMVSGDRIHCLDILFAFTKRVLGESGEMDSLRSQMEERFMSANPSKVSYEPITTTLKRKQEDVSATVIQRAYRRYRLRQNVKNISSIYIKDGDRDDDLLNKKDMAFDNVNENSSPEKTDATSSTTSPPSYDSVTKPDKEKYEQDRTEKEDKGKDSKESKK

pIC50	SMILES
≥ 5.70	CC(C)O[C@@H]1CC2(CCN(C(=O)c3ccc(NC4(C)COC4)cn3)CC2)Oc2ccc(F)cc21 [Compound 1]
≥ 5.70	COc1cc(C(=O)N2CCC3(CC2)CC(COC(C)C)c2ccccc2O3)ccc1OC(C)C (stereo not shown) [Compound 2]
≥ 5.70	COc1cc(C(=O)N2CCC3(CC2)CC(Oc2cncc(C#N)c2)c2ccccc2O3)ccc1OC(C)C (stereo not shown) [Compound 3]
5.30 to 5.70	CCS(=O)(=O)c1ccc(C(=O)N2CCC3(CC2)C[C@@H](OC(C)C)c2cc(F)cc(F)c2O3)cc1C [Compound 4]
≥ 5.70	CCO[C@@H]1CC2(CCN(C(=O)c3ccc(S(=O)(=O)CC(C)C)cc3)CC2)Oc2ccc(F)cc21 [Compound 5]
≥ 5.70	COc1cc(C(=O)N2CCC3(CC2)CC(C(C)OC)c2ccccc2O3)ccc1OC(C)C (stereo not shown) [Compound 6]
≥ 5.70	CC(C)O[C@@H]1CC2(CCN(C(=O)c3ccc(S(=O)(=O)C(F)(F)F)cc3)CC2)Oc2ccc(F)cc21 [Compound 7]
< 5.30	CC(C)Oc1ccc(C(=O)N2CCC3(CC2)C[C@@H](OC(C)C)c2cc(F)ccc2O3)cc1CN [Compound 8]
≥ 5.70	CCS(=O)(=O)c1ccc(C(=O)N2CCC3(CC2)C[C@@H](OC(C)C)c2cc(F)ccc2O3)cc1C [Compound 9]
≥ 5.70	COc1cc(C(=O)N2CCC3(CC2)C[C@@H](OC(C)C)c2cc(F)ccc2O3)ccc1C(C)(C)O [Compound 10]
≥ 5.70	Cc1cc(S(=O)(=O)C(C)C)ccc1C(=O)N1CCC2(CC1)C[C@@H](OC(C)C)c1cc(F)ccc1O2 [Compound 11]
≥ 5.70	CCOC1CC2(CCN(C(=O)c3ccc(OC(C)C)c(OC)c3)CC2)Oc2ccccc21 (stereo not shown) [Compound 12]
≥ 5.70	Cc1cc(C(=O)N2CCC3(CC2)C[C@@H](OC(C)C)c2cc(F)ccc2O3)ccc1S(=O)(=O)C(C)C [Compound 13]
≥ 5.70	CC(C)O[C@@H]1CC2(CCN(C(=O)c3cccc4cccnc34)CC2)Oc2ccccc21 [Compound 14]
< 5.30	CNCc1cc(C(=O)N2CCC3(CC2)C[C@@H](OC(C)C)c2cc(F)ccc2O3)ccc1OC(C)C [Compound 15]
≥ 5.70	CC(C)O[C@@H]1CC2(CCN(C(=O)c3ccc(N(C)C(C)C)cn3)CC2)Oc2ccc(F)cc21 [Compound 16]
≥ 5.70	CC(C)O[C@@H]1CC2(CCN(C(=O)c3ccc(N4CCN(S(C)(=O)=O)CC4)cn3)CC2)Oc2ccc(F)cc21 [Compound 17]
≥ 5.70	COc1ccc(C(=O)N2CCC3(CC2)CC(c2ccccc2)c2ccccc2O3)cc1OC (stereo not shown) [Compound 18]
≥ 5.70	CC(C)O[C@@H]1CC2(CCN(C(=O)c3ccc(NS(=O)(=O)C(C)C)cc3)CC2)Oc2ccc(F)cc21 [Compound 19]
≥ 5.70	COc1ccc(C(=O)N2CCC3(CC2)C[C@@H](OC(C)C)c2ccccc2O3)cc1C [Compound 20]
≥ 5.70	C=CCOC1CC2(CCN(C(=O)c3ccc(OC(C)C)c(OC)c3)CC2)Oc2ccccc21 (stereo not shown) [Compound 21]
≥ 5.70	CC(C)O[C@@H]1CC2(CCN(C(=O)c3ccc(S(=O)(=O)C(C)C)c(C#N)c3)CC2)Oc2ccc(F)cc21 [Compound 22]
≥ 5.70	COc1cc(C(=O)N2CCC3(CC2)CC(COCC(F)F)c2ccccc2O3)ccc1OC(C)C (stereo not shown) [Compound 23]
≥ 5.70	CCOC1CC2(CCN(C(=O)c3ccc(OC(C)C)c(OC)c3)CC2)S(=O)(=O)c2ccccc21 (stereo not shown) [Compound 24]
≥ 5.70	COc1cc(C(=O)N2CCC3(CC2)CC(OC(C)C)c2ccc(F)cc2O3)ccc1OC(C)C (stereo not shown) [Compound 25]
≥ 5.70	Cc1cc(C(=O)N2CCC3(CC2)C[C@H](OC(C)C)c2ccccc2O3)ccc1C(C)(C)O [Compound 26]

pIC50	SMILES
≥ 5.70	Cc1cc(C(=O)N2CCC3(CC2)C[C@@H](OC(C)C)c2cc(F)cc(F)c2O3)ccc1S(=O)(=O)C(C)C [Compound 27]
5.30 to 5.70	CC(C)O[C@@H]1CC2(CCN(C(=O)c3ccc4[nH]ncc4c3)CC2)Oc2ccccc21 [Compound 28]
≥ 5.70	CC(C)OC1CC2(CCN(C(=O)c3ccc(S(=O)(=O)C(C)C)c(C#N)c3)CC2)Oc2ccc(F)cc21 (stereo not shown) [Compound 29]
5.30 to 5.70	CC(C)OC1CC2(CCN(C(=O)c3ccc(S(=O)(=O)CC4CC4)cn3)CC2)Oc2ccc(F)cc21 (stereo not shown) [Compound 30]
≥ 5.70	CC(C)O[C@@H]1CC2(CCN(C(=O)c3ccc(C(C)(C)O)c(F)c3)CC2)Oc2ccccc21 [Compound 31]
5.30 to 5.70	CCO[C@@H]1CC2(CCN(C(=O)c3ccc(S(=O)(=O)C(C)C)cc3)CC2)Oc2ccc(F)cc21 [Compound 32]
≥ 5.70	COc1cc(C(=O)N2CCC3(CC2)CC(OC(C)C)c2nn(C(C)(C)C)cc2O3)ccc1OC(C)C (stereo not shown) [Compound 34]
≥ 5.70	CC(C)OCC1CC2(CCN(C(=O)c3ccc(C(C)(C)O)cc3)CC2)Oc2ccccc21 (stereo not shown) [Compound 35]
≥ 5.70	Cc1cc(C(=O)N2CCC3(CC2)C[C@@H](OC(C)C)c2ccccc2O3)ccc1O [Compound 36]
≥ 5.70	Cc1cc(C(=O)N2CCC3(CC2)CC(OC(C)C)c2ccncc2O3)ccc1OC(C)C (stereo not shown) [Compound 37]
< 5.30	CCN(CC)CCOC1CC2(CCN(C(=O)c3ccc(OC(C)C)c(OC)c3)CC2)Oc2ccccc21 (stereo not shown) [Compound 38]
< 5.30	CC(C)S(=O)(=O)c1ccc(C(=O)N2CCC3(CCc4ccccc4O3)CC2)cc1 [Compound 39]
< 5.30	COc1ccccc1C(=O)N1CCC2(CC1)CC(C(C)C)c1ccccc1O2 (stereo not shown) [Compound 40]
≥ 5.70	COC1CCN(c2ccc(C(=O)N3CCC4(CC3)C[C@@H](OC(C)C)c3cc(F)ccc3O4)nc2)CC1 [Compound 41]
≥ 5.70	CC(C)Oc1ccc(C(=O)N2CCC3(CC2)C[C@H](OC(C)C)c2ccccc2O3)cc1CO [Compound 42]
≥ 5.70	Cc1cc(C(=O)N2CCC3(CC2)CC(OC(C)C)c2cc(C#N)ccc2O3)ccc1C(C)(C)O (stereo not shown) [Compound 43]
≥ 5.70	COCOC1=Cc2ccccc2OC12CCN(C(=O)c1ccc(OC(C)C)c(OC)c1)CC2 [Compound 44]
≥ 5.70	Cc1cc(C(=O)N2CCC3(CC2)CC(OC(C)C)c2cccnc2O3)ccc1OC(C)C (stereo not shown) [Compound 45]
≥ 5.70	CC(C)Nc1ccc(C(=O)N2CCC3(CC2)C[C@@H](OC(C)C)c2cc(F)ccc2O3)nc1 [Compound 46]
< 5.30	COc1cc(C(=O)N2CCC3(CC2)CC(NC(C)C)c2ccccc2O3)ccc1OC(C)C (stereo not shown) [Compound 47]
≥ 5.70	CC(C)O[C@@H]1CC2(CCN(C(=O)c3ccc(C(C)(C)O)c(F)c3)CC2)Oc2ccc(F)cc21 [Compound 48]
≥ 5.70	CC(C)O[C@@H]1CC2(CCN(C(=O)c3ccc(C4(O)CCCC4)cc3)CC2)Oc2ccc(F)cc21 [Compound 49]
≥ 5.70	CCc1ccc(C(=O)N2CCC3(CC2)C[C@@H](OC(C)C)c2ccccc2O3)cc1OC [Compound 50]
≥ 5.70	COc1cc(C(=O)N2CCC3(CC2)Oc2ccccc2CC3OC(C)C)ccc1OC(C)C (stereo not shown) [Compound 51]
≥ 5.70	CC(C)O[C@@H]1CC2(CCN(C(=O)c3ccc(N4CCOCC4)cn3)CC2)Oc2ccc(F)cc21 [Compound 52]
≥ 5.70	CC(C)O[C@@H]1CC2(CCN(C(=O)c3ccc(SC(C)C)cc3)CC2)Oc2ccc(F)cc21 [Compound 53]
